Assay results published in patent US6825230B2, “Spiro and dispiro 1,2,4-trixolane antimalarials” (Medicines for Malaria Venture MMV, priority 2002, dated 2004).

How the values were obtained:
[1] = system: chloroquine-resistant K1 strain of P. falciparum; assay: In vitro antimalarial semiautomated microdilution assay ([3H]-hypoxanthine incorporation), K1 strain; format: cell-based, Plasmodium falciparum; conditions: Plasmodium falciparum, K1, 72 h, read-out: IC50 (ng/ml) K1, chloroquine-resistant K1 strain, 72 h incubation
Outline: (§1)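 IC50 comes from Logit regression of [3H]-hypoxanthine incorporation data. Intraerythrocytic P. falciparum taken from asynchronous stock cultures is exposed to OZ compounds in a semiautomated microdilution format.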

[2] = system: Schistosoma mansoni adult worms (49-day-old); assay: Effect on adult schistosomes (49-day-old) in infected mice; format: in vivo; conditions: single 400 mg/kg per os
Method: Mice were infected with 100 Schistosoma mansoni cercariae on day 49 post-treatment. Each group was treated per os with OZ compounds at single doses of 200, 400, and 600 mg/kg. Untreated mice served as the control. All groups were killed 4 weeks after treatment and the liver and intestine were removed and separated. The liver and intestine were compressed and alive male and female worms could be seen and counted.

[3] = Pharmacokinetics in dogs (IV and oral dosing); conditions: in vivo, dog; for bioavailability: some values marked (V), not defined
Source text: (§2) Artesunate is listed as a reference compound.

P. berghei ANKA strain [4] = assay: Onset of action and recrudescence experiment, single 100 mg/kg po; format: in vivo, Plasmodium berghei; conditions: single 100 mg/kg po (SSV) on day +3 post-infection; recrudescence = >5% parasitemia; followed up to 60 days; groups of five
Method: The onset of drug action was determined after a single fixed dose of 100 mg/kg (SSV vehicle) po to groups of five animals on day +3 post-infection (day 0).
(§3) Moro NMRI male mice (Fu Albino specific pathogen free) weighing 18±2 g were infected intravenously (i.v.) with 2×10^7 P. berghei ANKA strain-infected erythrocytes from donor mice on day 0 of the experiment. From donor mice with circa 30% parasitemia, heparinized blood was taken and diluted in physiological saline to 10^8 parasitized erythrocytes per ml. An aliquot (0.2 ml) of this suspension was injected i.v. into experimental and control groups of mice. […] Throughout the experiments, mice were kept in groups of three or five animals in Makrolon type II cages in an air-conditioned animal room at 22 to 23° C.

[5] = system: ANKA strain of Plasmodium berghei; assay: Single dose ED50/ED90/ED99 determination in infected mice; format: in vivo; conditions: single dose po in SSV on day 1 post-infection, parasitemia day 3, nonlinear fitting
Outline: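 Moro SPF or NMRI mice (three per group) infected with P. berghei ANKA were dosed once on day 1 post-infection in SSV (0.5% CMC, 0.5% benzyl alcohol, 0.4% Tween 80, 0.9% NaCl). Parasitemia reduction was scored on day 3; ED values (mg/kg) came from nonlinear fitting.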

P. berghei ANKA strain [6] = assay: Prophylactic activity, single 100 mg/kg po at various times before infection; format: in vivo, Plasmodium berghei; conditions: parasitemia reduction on day 3 post-infection
Method: as §3
Prophylactic activities of the compounds were compared after administering po single dose of 100 mg/kg to different groups of five animals at various times before infection. All groups including an untreated control group, were then infected at the same time. Parasitemia was determined for each animal on day 3 post-infection, and percent of reduction of the level of parasitemia compared to levels for animals given no drug is determined.

[7] = system: ANKA strain of P. berghei; assay: Single dose STI in vivo screen in infected mice; parameters: species or system Plasmodium berghei
P. berghei ANKA strain [8] = assay: Divided 3x10 mg/kg vs single 1x30 mg/kg po dose in infected mice; format: in vivo, Plasmodium berghei
[9] = system: chloroquine-sensitive NF54 strain of P. falciparum; assay: In vitro antimalarial semiautomated microdilution assay ([3H]-hypoxanthine incorporation), NF54 strain; format: cell-based, Plasmodium falciparum; conditions: Plasmodium falciparum, NF54, 72 h, read-out: IC50 (ng/ml) NF54, chloroquine-sensitive NF54 strain, 72 h incubation
Outline: as §1

P. berghei ANKA strain [10] = assay: Divided 3x3 mg/kg and 3x1 mg/kg po doses in infected mice; format: in vivo, Plasmodium berghei; conditions: for Activity (%): percent reduction of parasitemia vs control on day 4
Outline: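 Male NMRI mice were infected i.v. with 2×10^7 P. berghei-parasitized erythrocytes on day 0, then dosed orally in SSV vehicle on days 1, 2 and 3 post-infection.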

[11] = Pharmacokinetics in rats (IV and oral dosing); conditions: in vivo, rat
Source text: as §2

[12] = Differential scanning calorimetry (DSC) thermal stability; format: physicochemical; conditions: thermal decomposition
[13] = 3 × 1 mg/kg p.o. SSV on days 1, 2, 3 post-infection
[14] = 3 × 3 mg/kg p.o. SSV on days 1, 2, 3 post-infection

In the case of Cc1ccc(S(=O)(=O)O)cc1.O=C(C[C@H]1CC[C@]2(CC1)OO[C@]1(O2)C2CC3CC(C2)CC1C3)N1CCNCC1 [OZ279], the IC50 [1] is reported as 0.21 ng/mL, the “% reduction of adult worms growth at day 49 after per os application of 400 mg/kg, TWR (%)” value ([2]; 49-day-old adults, total worm reduction rate) is reported as 0% and the “Adult worms day 49, per os 400 mg/kg, DEAD WORM (%)” value ([2]; percentage of dead worm in the liver) is reported as 12%. The half-life ([3]; IV 10 mg/kg) was 2.96 h, the half-life ([3]; oral 10 mg/kg) was 3.26 h and the bioavailability ([3]; oral 10 mg/kg, read-out: Dog Oral Bioavailability 10 mg/kg) was 32.8%. The bioavailability ([3]; oral 25 mg/kg, read-out: Dog Oral Bioavailability 25 mg/kg) was 55.7%, the “Time of Recrudescence” value (P. berghei ANKA strain [4]) was 15.0 days and the ED50 ([5]; Plasmodium berghei, po) was 0.63 mg/kg. The “ED90” value [5] was 1.8 mg/kg, the “ED99” value [5] was 3.9 mg/kg and the “Prophylactic Activity (%) 24 h” value (P. berghei ANKA strain [6]; single 100 mg/kg po 24 h before infection) was 97%. For the same compound, the “Prophylactic Activity (%) 48 h” value (P. berghei ANKA strain [6]; single 100 mg/kg po 48 h before infection) was 27%, the “Prophylactic Activity (%) 72 h” value (P. berghei ANKA strain [6]; single 100 mg/kg po 72 h before infection) was 14% and the “Prophylactic Activity (%) 0 h” value (P. berghei ANKA strain [6]; single 100 mg/kg po at 0 h) was 100%. The “Activity (%) 3 mg/kg SSV po” value ([7]; single 3 mg/kg po in SSV, percent reduction in parasitemia on day 3) was 99.42%, the “Survival (days) 10 mg/kg SSV po” value ([7]; single 10 mg/kg po in SSV, untreated 6-7 days) was 9.3 days and the “Activity (%) 10 mg/kg SSV po” value ([7]; single 10 mg/kg po in standard suspending vehicle (SSV) on day 1 post-infection, percent reduction in parasitemia on day 3) was 99.98%. For the same compound, the “Survival (days) 3 × 10 mg/kg p.o. SSV” value (P. berghei ANKA strain [8]; 10 mg/kg po on days 1, 2, 3 post-infection) was 25.4 days, the “Activity (%) 3 × 10 mg/kg p.o. SSV” value (P. berghei ANKA strain [8]; 10 mg/kg po on days 1, 2, 3 post-infection, parasitemia reduction on day 4) was 100% and the “Survival (days) 1 × 30 mg/kg p.o. SSV” value (P. berghei ANKA strain [8]; single 30 mg/kg po on day 1 post-infection) was 14.8 days. The “Activity (%) 1 × 30 mg/kg p.o. SSV” value (P. berghei ANKA strain [8]; single 30 mg/kg po on day 1 post-infection, parasitemia reduction on day 4) was 99.95%, the “Cures 1 × 30 mg/kg p.o. SSV” value (P. berghei ANKA strain [8]; single 30 mg/kg po, cure = survival to day 30 post-infection) was 0/5 and the IC50 [9] was 0.24 ng/mL. For the same compound, the “Survival” value (P. berghei ANKA strain [10]; [13]) was 8.8 days, the “Activity (%)” value (P. berghei ANKA strain [10]; [13]) was 83% and the “Survival” value (P. berghei ANKA strain [10]; [14]) was 14.8 days. The “Activity (%)” value (P. berghei ANKA strain [10]; [14]) was 100%, the half-life ([11]; IV 10 mg/kg) was 1.68 h and the bioavailability ([11]; oral 10 mg/kg, read-out: Rat Oral Bioavailability 10 mg/kg) was 37.2%. For the same compound, the half-life ([11]; oral 25 mg/kg) was 2.78 h and the bioavailability ([11]; oral 25 mg/kg, read-out: Rat Oral Bioavailability 25 mg/kg) was 71.1%.
With C[C@@H]1CC[C@H]2[C@@H](C)C(=O)O[C@@H]3O[C@@]4(C)CC[C@@H]1[C@]32OO4 [Artemisinin, artemisinin, reference compound] the “Tm, dec (DSC)” value [12] was 181 °C and the “Time of Recrudescence” value (P. berghei ANKA strain [4]) was 8.4 days.
